Assay results taken from patent US9801961B2, “2-phenylimidazo[1,2-a]pyrimidines as imaging agents” (Hoffmann-La Roche Inc., priority 2013, dated 2017).

Test system: native tau aggregates
Experiment: TAU radioligand in vitro displacement assay ([3H]T808 autoradiography on human AD brain sections)
Format: binding
Details: compound 10 nM, radioligand [3H]T808 10 nM, 50 mM Tris pH 7.4, room temperature, 30 min
Outline: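 Human AD brain cryosections (10 μm) co-incubated with [3H]T808 (10 nM) and test compound at various concentrations in 50 mM Tris pH 7.4, 30 min at room temperature, then washed at 4° C. Autoradiography after 5-day plate exposure. % displacement from ROI specific binding, white-matter signal subtracted as non-specific; cold T808 internal control.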

Compound | % displacement of [3H]T808 (10 nM) at 10 nM [%]
CNc1ccn2cc(-c3cccc(OCCCF)c3)nc2n1 [Example 130, 2-(3-(3-Fluoropropoxy)phenyl)-N-methylimidazo[1,2-a]pyrimidin-7-amine] | 12
CNc1ccn2cc(-c3cccc(OCF)c3)nc2n1 [Example 131, 2-(3-(Fluoromethoxy)phenyl)-N-methylimidazo[1,2-a]pyrimidin-7-amine] | 33
CNc1ccn2cc(-c3ccc(OCF)cc3)nc2n1 [Example 132, 2-(4-(Fluoromethoxy)phenyl)-N-methylimidazo[1,2-a]pyrimidin-7-amine] | 36
Oc1cccc(-c2cn3ccc(NC4CC4)nc3n2)c1 [Example 133, 3-(7-(Cyclopropylamino)imidazo[1,2-a]pyrimidin-2-yl)phenol] | 14
FCCOc1cccc(-c2cn3ccc(NC4CC4)nc3n2)c1 [Example 134, N-Cyclopropyl-2-(3-(2-fluoroethoxy)phenyl)imidazo[1,2-a]pyrimidin-7-amine] | 6
CN(C)c1ccn2cc(-c3ccc(CO)cc3)nc2n1 [Example 135, [4-[7-(Dimethylamino)imidazo[1,2-a]pyrimidin-2-yl]phenyl]methanol acetic acid adduct] | 18
CNc1ccn2cc(-c3ccc(C(=O)OC)cc3)nc2n1 [Example 136, Methyl 4-[7-(methylamino)imidazo[1,2-a]pyrimidin-2-yl]benzoate] | 27
FCOc1cccc(-c2cn3ccc(NC4CC4)nc3n2)c1 [Example 137, N-Cyclopropyl-2-(3-(fluoromethoxy)phenyl)imidazo[1,2-a]pyrimidin-7-amine] | 18
FCCOc1ccc(-c2cn3ccc(NC4CC4)nc3n2)cc1 [Example 138, N-Cyclopropyl-2-(4-(2-fluoroethoxy)phenyl)imidazo[1,2-a]pyrimidin-7-amine] | 20
FCCCOc1ccc(-c2cn3ccc(NC4CC4)nc3n2)cc1 [Example 139, N-Cyclopropyl-2-(4-(3-fluoropropoxy)phenyl)imidazo[1,2-a]pyrimidin-7-amine] | 22
FCOc1ccc(-c2cn3ccc(NC4CC4)nc3n2)cc1 [Example 140, N-Cyclopropyl-2-(4-(fluoromethoxy)phenyl)imidazo[1,2-a]pyrimidin-7-amine] | 11
CNc1ccn2cc(-c3ccc(SC)cc3)nc2n1 [Example 141, N-Methyl-2-(4-(methylthio)phenyl)imidazo[1,2-a]pyrimidin-7-amine] | 34
CNc1ccn2cc(-c3ccc(OC)c(OC)c3)nc2n1 [Example 142, 2-(3,4-Dimethoxyphenyl)-N-methylimidazo[1,2-a]pyrimidin-7-amine] | 21
CNc1ccn2cc(-c3ccc(C)c(OC)c3)nc2n1 [Example 143, 2-(3-Methoxy-4-methylphenyl)-N-methylimidazo[1,2-a]pyrimidin-7-amine] | 21
CNc1ccn2cc(-c3cc(OC)cc(OC)c3)nc2n1 [Example 144, 2-(3,5-Dimethoxyphenyl)-N-methylimidazo[1,2-a]pyrimidin-7-amine] | 14
